The target in the assay is T1, α-hSlo (BKCa channel α-subunit) (Homo sapiens, UniProt Q12791).
T1 construct: gene KCNMA1; α-hSlo expressed in HEK293T cells
The experiment in a line: patch clamp of α-hSlo-expressing HEK293T cells (Figure S1). In kind it is cell-based. (In general: In patch-clamp work, channel activity is measured electrically.)

T1 sequence (Q12791 whole entry): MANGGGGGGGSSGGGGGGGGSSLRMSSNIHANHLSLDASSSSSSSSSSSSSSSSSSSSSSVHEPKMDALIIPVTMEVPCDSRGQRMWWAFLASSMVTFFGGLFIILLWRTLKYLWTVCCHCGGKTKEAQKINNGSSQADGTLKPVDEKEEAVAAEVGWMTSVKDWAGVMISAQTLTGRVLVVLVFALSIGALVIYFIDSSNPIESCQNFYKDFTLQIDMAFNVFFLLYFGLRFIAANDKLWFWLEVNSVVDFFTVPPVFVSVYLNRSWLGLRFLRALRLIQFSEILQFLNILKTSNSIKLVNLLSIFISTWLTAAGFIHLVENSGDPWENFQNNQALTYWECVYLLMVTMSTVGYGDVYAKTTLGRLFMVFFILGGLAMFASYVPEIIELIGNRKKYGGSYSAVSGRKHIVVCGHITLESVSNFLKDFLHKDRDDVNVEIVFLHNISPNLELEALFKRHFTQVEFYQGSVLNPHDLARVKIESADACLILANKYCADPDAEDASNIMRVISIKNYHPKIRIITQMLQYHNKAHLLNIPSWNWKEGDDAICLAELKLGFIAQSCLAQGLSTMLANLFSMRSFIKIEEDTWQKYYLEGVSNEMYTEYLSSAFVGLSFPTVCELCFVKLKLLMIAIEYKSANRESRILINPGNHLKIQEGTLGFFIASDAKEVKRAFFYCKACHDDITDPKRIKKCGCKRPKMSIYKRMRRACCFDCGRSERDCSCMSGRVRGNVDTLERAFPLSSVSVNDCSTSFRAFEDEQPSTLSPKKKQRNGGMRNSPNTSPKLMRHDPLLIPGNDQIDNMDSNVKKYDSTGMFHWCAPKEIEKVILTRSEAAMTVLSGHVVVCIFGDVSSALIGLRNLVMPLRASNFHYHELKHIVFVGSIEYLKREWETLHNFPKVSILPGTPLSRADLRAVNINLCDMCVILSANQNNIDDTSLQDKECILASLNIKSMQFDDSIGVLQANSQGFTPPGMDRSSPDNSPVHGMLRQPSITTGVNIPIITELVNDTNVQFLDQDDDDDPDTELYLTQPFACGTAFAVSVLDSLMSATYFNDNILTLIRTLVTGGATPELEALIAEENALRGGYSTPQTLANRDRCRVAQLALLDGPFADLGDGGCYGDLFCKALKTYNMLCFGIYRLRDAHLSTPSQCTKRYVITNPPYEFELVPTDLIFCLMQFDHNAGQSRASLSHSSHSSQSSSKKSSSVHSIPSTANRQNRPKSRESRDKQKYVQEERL

With `O=c1cc(CCl)nc2c(-c3cccc4ccccc34)c(C(F)(F)F)[nH]n12` [QO-40, 5-(chloromethyl)-3-(naphthalen-1-yl)-2-(trifluoromethyl)pyrazolo[1,5-a]pyrimidin-7(4H)-one], the “patch clamp of α-hSlo-expressing HEK293T cells (Figure S1)” value is on record as “In HEK293T cells expressing α-hSlo, QO-40 stimulated BKCa channel activity”.

The record behind these values is paper PMC8143083, “Effective Activation of BKCa Channels by QO-40 (5-(Chloromethyl)-3-(Naphthalen-1-yl)-2-(Trifluoromethyl)Pyrazolo [1,5-a]pyrimidin-7(4H)-one), Known to Be an Opener of KCNQ2/Q3 Channels” (Pharmaceuticals, 2021).
